For test [1], the system named is PD-L1 expression. The experiment in a line: PD-L1 promoter-luciferase reporter assay in A549 pGL4.14-PD-L1 cell line. The settings on record: Homo sapiens, IFNγ (50 ng/ml) inducer, luminometer, read-out: PD-L1 expression inhibition rate in A549 (%). It counts as cell-based. How it is done:
The PD-L1 promoter gene region was inserted into the pGL4.14-[luc2/Hygro] vector (promega, Madison, WI) in the following way to prepare a promoter-reporter construct for measuring gene transcription activity.
After preparing primer including KpnI and Xhol restriction enzyme sites in PD-L1, PCR (polymerase chain reaction) was performed, and promoter region DNA was separated by performing electrophoresis on an agarose gel. The pGL4.14-[1uc2/Hygro] vector containing firefly luciferase as a reporter gene was treated with the same restriction enzyme, and separated by agarose gel electrophoresis and gel extraction. The pure isolated PD-L1 promoter gene region and the pGL4.14-[luc2/Hygro] vector were reacted at 50° C. for 1 hour using in-fusion DNA ligase (Takara), followed by E. coli transformation to prepare a promoter-reporter construct into which the […] promoter was inserted, which was named pGL4.14-PD-L1.
To measure the transcriptional activity of the PD-L1 gene promoter, A549 cells were transiently transfected with the PD-L1 promoter-reporter construct as follows, and then the luciferase activity of the cell extract was measured.
The DNA-lipofectamine complex was prepared according to the manufacturer's protocol using 0.1 μtg of promoter-reporter construct plasmid and Lipofectamine 2000 reagent (Invitrogen). Opti-MEM medium (Invitrogen) was used in the process of forming a complex between DNA and Lipofectamine 2000. A549 cells were prepared at 2.5×10^5 cells per well (1 ml) in a 12-well plate by checking the number of cells immediately before adding the DNA. The DNA-lipofectamine complex was carefully mixed with A549 cells and reacted in an incubator at 37° C. for 6 hours. Thereafter, the medium was changed to search for transfected cells, and PD-L1-transfected A549 cells were found through a luciferase test. This was named A549 pGL4.14-PD-L1 cell line and the experiment was conducted. IFNγ (50 ng/ml) was used as a PD-L1 inducer.
The A549 pGL4.14-PD-L1 cell line was treated with the pyrimido pyrimidinone derivatives of Example at concentrations of 0.1 μM and 1.0 μM, respectively, and PD-L1 expression inhibition was evaluated using a luminometer. For comparison, the same experiment was performed for GS9973 (Entospletinib) known to have PD-L1 expression inhibitory activity.
The inhibition rate of PD-L1 expression was calculated by Equation 1 below. PD-L1 expression inhibition rate (%)=100−[(A/B)×100] [Equation 1]
wherein, A is a value when treated with a drug, and B is a value when not treated with a drug.
Background: In a reporter assay the amount or activity of a reporter protein is the signal.

In test [2] the test system is cell surface PD-L1 expression. The conditions noted are these: kinase inhibitor library screening, melanoma; cited from earlier work.
A further test deals with melanoma cell. The settings on record: melanoma model; cited from earlier work.
Another test relates to PD-L1. The experiment in a line: Western-blot analysis of PD-L1 in tumors excised from B16F10 mice. On the set-up: species or system mouse. The settings on record: tumors extracted from mice after the in vivo test of Experimental Example 2; FIG. 3. The text has this:
After the in vivo tumor inhibition test using compound 1-8 of Experimental Example 2, the PD-L1 expression inhibition effect in tumor cells extracted from mice was confirmed through Western-blot analysis. For comparison, the efficacy of inhibiting PD-L1 expression in tumor cells extracted from the control mice was also confirmed through Western-blot analysis.
Proteins were identified with the ChemiDoc™ imaging system (Bio-rad) using a chemiluminescence (ECL) kit (elpis biotec, EBP-1073).

Test [3] relates to PD-L1 expression. The conditions noted are these: melanoma model; cited from earlier work.

The term inhibition denotes the relative decrease from the control value, in per cent. On to `COc1ncc(NC(=O)c2cccc(C3=NC(C)(C)CO3)c2)cc1N1Cc2cnc(Nc3ccccc3)nc2N(C)C1=O` [Compound I-7, 3-(4,4-dimethyl-4,5-dihydrooxazol-2-yl)-N-(6-methoxy-5-(1-methyl-2-oxo-7-(phenylamino)-1,2-dihydropyrimido[4,5-d]pyrimidin-3(4H)-yl)pyridin-3-yl)benzamide], for which, in the test with PD-L1 expression [1], the inhibition at 0.1 µM is 13.1% and the inhibition at 1 µM was 85.3%.
Turning to `CNC(=O)c1cc(Oc2ccc(NC(=O)Nc3ccc(Cl)c(C(F)(F)F)c3)c(F)c2)ccn1` [regorafenib], the “reduction of cell surface PD-L1 expression level” value in test [2] is listed as “more than 50%”.
Turning to `COc1ncc(NC(=O)c2cccc(C(C)(C)C)c2)cc1N1Cc2cnc(Nc3ccccc3)nc2N(C)C1=O` [Compound I-6, 3-(t-butyl)-N-(6-methoxy-5-(1-methyl-2-oxo-7-(phenylamino)-1,2-dihydropyrimido[4,5-d]pyrimidin-3(4H)-yl)pyridin-3-yl)benzamide], in the test with PD-L1 expression [1], the inhibition at 0.1 µM turned out to be 13.9% and the inhibition at 1 µM is 94.1%.
As for `CN1C(=O)N(c2cc(NC(=O)c3csc(C(C)(C)C)n3)cnc2Cl)Cc2cnc(Nc3ccccc3)nc21` [Compound I-10, 2-(t-butyl)-N-(6-chloro-5-(1-methyl-2-oxo-7-(phenylamino)-1,2-dihydropyrimido[4,5-d]pyrimidin-3(4H)-yl)pyridin-3-yl)thiazole-4-carboxamide], in the test with PD-L1 expression [1], the inhibition at 0.1 µM was found to be 67% and the inhibition at 1 µM came to 98%.
With `Cc1ncc(NC(=O)c2cccc(C(C)(C)C)c2)cc1N1Cc2cnc(Nc3ccccc3)nc2N(C)C1=O` [Compound I-2, 3-(t-butyl)-N-(6-methyl-5-(1-methyl-2-oxo-7-(phenylamino)-1,2-dihydropyrimido[4,5-d]pyrimidin-3(4H)-yl)pyridin-3-yl)benzamide], in the test on PD-L1 expression [1], the inhibition at 0.1 µM was found to be 32.6% and the inhibition at 1 µM turned out to be 72.5%.
`Cc1ncc(NC(=O)c2ccc(C3=NC(C)(C)CO3)cc2)cc1N1Cc2cnc(Nc3ccccc3)nc2N(C)C1=O` [Compound I-4, 4-(4,4-dimethyl-4,5-dihydrooxazol-2-yl)-N-(6-methyl-5-(1-methyl-2-oxo-7-(phenylamino)-1,2-dihydropyrimido[4,5-d]pyrimidin-3(4H)-yl)pyridin-3-yl)benzamide]: in the test on PD-L1 expression [1], the inhibition at 0.1 µM worked out at 20.1% and the inhibition at 1 µM turned out to be 82.5%.
For `CN1C(=O)N(c2cc(NC(=O)c3cccc(C(C)(C)C)c3)cnc2Cl)Cc2cnc(Nc3ccccc3)nc21` [Compound I-9, 3-(t-butyl)-N-(6-chloro-5-(1-methyl-2-oxo-7-(phenylamino)-1,2-dihydropyrimido[4,5-d]pyrimidin-3(4H)-yl)pyridin-3-yl)benzamide] the same measures were 48.8% and 97.2%.
For the compound `Cc1ncc(NC(=O)c2cccc(C(F)(F)F)c2)cc1N1Cc2cnc(Nc3ccccc3)nc2N(C)C1=O` [Compound I-1, N-(6-methyl-5-(1-methyl-2-oxo-7-(phenylamino)-1,2-dihydropyrimido[4,5-d]pyrimidin-3(4H)-yl)pyridin-3-yl)-3-(trifluoromethyl)benzamide], in the test with PD-L1 expression [1], the inhibition at 0.1 µM turned out to be 12.8% and the inhibition at 1 µM stood at 87.1%.
In the same order, the values of `COc1ncc(NC(=O)c2cccc(C(F)(F)F)c2)cc1N1Cc2cnc(Nc3ccccc3)nc2N(C)C1=O` [Compound I-3, N-(6-methoxy-5-(1-methyl-2-oxo-7-(phenylamino)-1,2-dihydropyrimido[4,5-d]pyrimidin-3(4H)-yl)pyridin-3-yl)-3-(trifluoromethyl)benzamide] are 29.3% and 92.5%.
As to `Cc1ncc(NC(=O)c2cccc(C3=NC(C)(C)CO3)c2)cc1N1Cc2cnc(Nc3ccccc3)nc2N(C)C1=O` [Compound I-5, 3-(4,4-dimethyl-4,5-dihydrooxazol-2-yl)-N-(6-methyl-5-(1-methyl-2-oxo-7-(phenylamino)-1,2-dihydropyrimido[4,5-d]pyrimidin-3(4H)-yl)pyridin-3-yl)benzamide], in the test on PD-L1 expression [1], the inhibition at 0.1 µM was determined as 19.4% and the inhibition at 1 µM was found to be 81.9%.
In the case of `COc1cc(/C=C/C(=O)CC(=O)/C=C/c2ccc(O)c(OC)c2)ccc1O` [curcumin], the “melanoma cell growth inhibitory effects” value in the test with melanoma cell was “melanoma cell growth inhibitory effects”.
In the case of `CN1C(=O)N(c2cc(NC(=O)c3cccc(C(F)(F)F)c3)cnc2Cl)Cc2cnc(Nc3ccccc3)nc21` [Compound I-8, N-(6-chloro-5-(1-methyl-2-oxo-7-(phenylamino)-1,2-dihydropyrimido[4,5-d]pyrimidin-3(4H)-yl)pyridin-3-yl)-3-(trifluoromethyl)benzamide], in the test on PD-L1 expression [1], the inhibition at 0.1 µM was determined as 60.4% and the inhibition at 1 µM came out at 97.5%. For the same compound, the “expression of PD-L1 in tumor compared to the control group (Western blot)” value in the test with PD-L1 is “reduced”.
`c1cn2cc(-c3ccc4cn[nH]c4c3)nc(Nc3ccc(N4CCOCC4)cc3)c2n1` [GS9973(Entospletinib), Entospletinib, reference compound]: in the test with PD-L1 expression [1], the inhibition at 0.1 µM amounted to 10.3% and the inhibition at 1 µM amounted to 47.1%.
Turning to `O=c1cc(-c2ccc(O)cc2)oc2cc(O)cc(O)c12` [apigenin], the “melanoma cell growth inhibitory effects” value with melanoma cell is “melanoma cell growth inhibitory effects”. For the same compound, the “suppression of PD-L1 expression induced by IFN-γ” value in the test on PD-L1 expression [3] was “significantly suppress”.
With `CN1C(=O)N(c2cc(NC(=O)c3cccc(C(F)(F)F)c3)cnc2Cl)Cc2cnc(Nc3ccc(O)cc3)nc21` [Compound I-11, N-(6-chloro-5-(7-((4-hydroxyphenyl)amino)-1-methyl-2-oxo-1,2-dihydropyrimido[4,5-d]pyrimidin-3(4H)-yl)pyridin-3-yl)-3-(trifluoromethyl)benzamide], in the test on PD-L1 expression [1], the inhibition at 0.1 µM was 65% and the inhibition at 1 µM was 98%.

(Values after patent US12590098B2, “Pyrimido pyrimidinone compound and pharmaceutical composition comprising the same” (AXCESO BIOPHARMA CO., LTD., priority 2020, dated 2026).)
